Reference: the NIST ThermoML archive (doi:10.1021/acs.jced.5b00451)
± gives the expanded uncertainty stated by the source.

Test: mn = molality of the nth substance listed, in mol/kg
Details: 101.33 kPa, Liquid, Vibrating tube method

CCCCCCCCCC[N+](C)(C)C.[Br-] [N,N,N-trimethyl-1-decanaminium bromide] + O
mass density [kg/m3]
Details	m1 = 0.01879	m1 = 0.02836	m1 = 0.04784	m1 = 0.05741	m1 = 0.06268	m1 = 0.0767	m1 = 0.08783	m1 = 0.09727	m1 = 0.1206	m1 = 0.1383
293.15 K	998.685 ± 0.2	998.921 ± 0.2	999.399 ± 0.2	999.635 ± 0.2	999.765 ± 0.2	1000.05 ± 0.2	1000.28 ± 0.2	1000.47 ± 0.2	1000.86 ± 0.2	1001.23 ± 0.2
298.15 K	997.496 ± 0.2	997.716 ± 0.2	998.157 ± 0.2	998.379 ± 0.2	998.511 ± 0.2	998.788 ± 0.2	998.987 ± 0.2	999.17 ± 0.2	999.597 ± 0.2	999.91 ± 0.2
303.15 K	996.082 ± 0.2	996.312 ± 0.2	996.748 ± 0.2	996.949 ± 0.2	997.055 ± 0.2	997.334 ± 0.2	997.534 ± 0.2	997.707 ± 0.2	998.105 ± 0.2	998.375 ± 0.2

CCCCCCCCCCCCCCCC[N+](C)(C)C.[Br-] [N,N,N-trimethyl-1-hexadecanaminium bromide] + O
mass density [kg/m3]
Details	293.15 K	298.15 K	303.15 K
m1 = 0.00082	998.23 ± 0.2	997.052 ± 0.21	995.673 ± 0.2
m1 = 0.00093	998.234 ± 0.2	997.055 ± 0.2	995.669 ± 0.2
m1 = 0.00104	998.238 ± 0.2	997.058 ± 0.21	995.669 ± 0.2
m1 = 0.00205	998.239 ± 0.2	997.06 ± 0.2	995.666 ± 0.2
m1 = 0.00309	998.245 ± 0.2	997.062 ± 0.2	995.67 ± 0.2
m1 = 0.00411	998.243 ± 0.2	997.065 ± 0.2	995.678 ± 0.2
m1 = 0.00625	998.254 ± 0.2	997.073 ± 0.2	995.681 ± 0.2
m1 = 0.00726	998.258 ± 0.2	997.076 ± 0.2	995.678 ± 0.2
m1 = 0.00801	998.255 ± 0.2	997.076 ± 0.2	995.687 ± 0.2
m1 = 0.00931	998.264 ± 0.2	997.078 ± 0.2	995.679 ± 0.2
m1 = 0.01038	998.274 ± 0.2	997.082 ± 0.2	995.679 ± 0.2
m1 = 0.01139	998.276 ± 0.2	997.089 ± 0.2	995.693 ± 0.2
m1 = 0.01252	998.279 ± 0.2	997.093 ± 0.2	995.676 ± 0.2
m1 = 0.01454	998.293 ± 0.2	997.098 ± 0.2	995.699 ± 0.2
m1 = 0.01561	998.296 ± 0.2	997.105 ± 0.2	995.676 ± 0.2

CCCCCCCCCCCC[N+](C)(C)C.[Br-] [dodecyltrimethylammonium bromide] + O
mass density [kg/m3]
Details	293.15 K	298.15 K	303.15 K
m1 = 0.00799	998.38 ± 0.2	997.201 ± 0.2	995.799 ± 0.2
m1 = 0.00998	998.422 ± 0.2	997.244 ± 0.2	995.839 ± 0.2
m1 = 0.01168	998.455 ± 0.2	997.278 ± 0.2	995.868 ± 0.2
m1 = 0.01448	998.514 ± 0.2	997.332 ± 0.2	995.921 ± 0.2
m1 = 0.01695	998.566 ± 0.2	997.376 ± 0.2	995.96 ± 0.2
m1 = 0.01883	998.601 ± 0.2	997.406 ± 0.2	995.987 ± 0.2
m1 = 0.02825	998.739 ± 0.2	997.528 ± 0.2	996.106 ± 0.2
m1 = 0.04703	998.998 ± 0.2	997.783 ± 0.2	996.34 ± 0.2
m1 = 0.09497	999.663 ± 0.2	998.401 ± 0.2	996.928 ± 0.2
m1 = 0.1963	1001.05 ± 0.2	999.701 ± 0.2	998.119 ± 0.2
m1 = 0.301	1002.39 ± 0.21	1000.96 ± 0.21	999.316 ± 0.21

CCCCCC[N+](C)(C)C.[Br-] [hexyltrimethylammonium bromide] + O
mass density [kg/m3]
Details	293.15 K	298.15 K	303.15 K
m1 = 0.04932	999.719 ± 0.2	998.528 ± 0.2	997.065 ± 0.2
m1 = 0.07746	1000.55 ± 0.2	999.34 ± 0.2	997.873 ± 0.2
m1 = 0.08812	1000.88 ± 0.2	999.654 ± 0.2	998.174 ± 0.2
m1 = 0.1186	1001.76 ± 0.2	1000.52 ± 0.2	999.049 ± 0.2
m1 = 0.1774	1003.49 ± 0.2	1002.19 ± 0.2	1000.78 ± 0.2
m1 = 0.1855	1003.72 ± 0.2	1002.41 ± 0.2	1000.97 ± 0.2
m1 = 0.2757	1006.26 ± 0.21	1004.93 ± 0.2	1003.53 ± 0.2
m1 = 0.3712	1008.99 ± 0.21	1007.66 ± 0.21	1006.15 ± 0.21
m1 = 0.4703	1011.8 ± 0.21	1010.34 ± 0.21	1008.8 ± 0.21
m1 = 0.5274	1013.14 ± 0.21	1011.76 ± 0.21	1010.3 ± 0.21
m1 = 0.5803	1014.75 ± 0.21	1013.13 ± 0.21	1011.67 ± 0.21
m1 = 0.636	1016.19 ± 0.21	1014.59 ± 0.21	1013.12 ± 0.21

CCCCCCCC[N+](C)(C)C.[Br-] [octyl trimethyl ammonium bromide] + O
mass density [kg/m3]
Details	m1 = 0.04535	m1 = 0.09122	m1 = 0.1223	m1 = 0.1444	m1 = 0.1759	m1 = 0.1958	m1 = 0.2338	m1 = 0.2621	m1 = 0.2773	m1 = 0.3003
293.15 K	999.46 ± 0.2	1000.72 ± 0.2	1001.54 ± 0.2	1002.14 ± 0.2	1002.97 ± 0.2	1003.52 ± 0.2	1004.58 ± 0.2	1005.29 ± 0.21	1005.65 ± 0.21	1006.33 ± 0.21
298.15 K	998.261 ± 0.2	999.486 ± 0.2	1000.3 ± 0.2	1000.84 ± 0.2	1001.75 ± 0.2	1002.13 ± 0.2	1003.15 ± 0.2	1003.84 ± 0.21	1004.24 ± 0.21	1004.76 ± 0.21
303.15 K	996.848 ± 0.2	998.045 ± 0.2	998.815 ± 0.2	999.391 ± 0.2	1000.2 ± 0.2	1000.69 ± 0.2	1001.63 ± 0.2	1002.32 ± 0.2	1002.69 ± 0.21	1003.25 ± 0.21

CCCCCCCCCCCCCC[N+](C)(C)C.[Br-] [tetradecyltrimethylammonium bromide] + O
mass density [kg/m3]
Details	293.15 K	298.15 K	303.15 K
m1 = 0.00291	998.259 ± 0.2	997.091 ± 0.2	995.687 ± 0.2
m1 = 0.00325	998.265 ± 0.2	997.097 ± 0.2	995.692 ± 0.2
m1 = 0.00379	998.273 ± 0.2	997.103 ± 0.2	995.706 ± 0.2
m1 = 0.00393	998.275 ± 0.2	997.105 ± 0.2	995.704 ± 0.2
m1 = 0.0049	998.286 ± 0.2	997.115 ± 0.2	995.708 ± 0.2
m1 = 0.0065	998.302 ± 0.2	997.127 ± 0.2	995.727 ± 0.2
m1 = 0.00821	998.32 ± 0.2	997.144 ± 0.2	995.739 ± 0.2
m1 = 0.01087	998.344 ± 0.2	997.164 ± 0.2	995.749 ± 0.2
m1 = 0.04969	998.72 ± 0.2	997.499 ± 0.2	996.055 ± 0.2
m1 = 0.09742	999.176 ± 0.2	997.906 ± 0.2	996.41 ± 0.2
m1 = 0.1468	999.632 ± 0.2	998.322 ± 0.2	996.79 ± 0.2
m1 = 0.1955	1000.08 ± 0.2	998.719 ± 0.2	997.144 ± 0.2
m1 = 0.3023	1001 ± 0.2	999.537 ± 0.2	997.713 ± 0.2
